Where two headings read alike, the source gives them in different places.
What was measured:
[1] = Second order rate constants, TCO with tetrazine activators, stopped-flow spectrophotometry in PBS; details: PBS at 37° C., 25 μM tetrazine, 50 μM TCO
Procedure: Second order rate constants for the reaction of tetrazines activators with 1.13 and 1.71 were determined using a SX20 stopped-flow spectrophotometer from Applied Photophysics. Measurements were performed at 37° C. with 25 μM tetrazine and 50 μM TCO in PBS, in triplicates, monitored at 535 nm. Data was analyzed using GraphPad Prism. Second order rate constants were determined from nonlinear fitting of the absorbance vs. time curves to the second order rate equation. […] Importantly, 2.17 and 2.18 are very reactive, but afford low release yields with TCO triggers that are not part of this invention (i.e. 1.71) [Versteegen et al., Angew. Chem. Int. Ed. 2013, 52, 14112-14116].

[2] = assay type: in vitro ADME; details: human, 200 μM
Procedure: (§1) 1.13 was incubated at 37° C. in PBS and human plasma at a concentration of 200 μM. The concentration after 12, 24 and 48 h was determined (n=3) by titration with activator 2.9 and simultaneous absorbance measurements.

[3] = Trigger stability in vitro in PBS; assay type: physicochemical; details: 37° C., 200 μM, after 48 h, n=3
Procedure: as §1

COC(=O)[C@]1(O)CC/C=C/[C@H](OC(=O)NCCOCCOCCOCCO)CC1 [Compound 1.13, Methyl(1S,4E,6R)-1-hydroxy-6-{[(2-{2-[2-(2-hydroxyethoxy)ethoxy]ethoxy}ethyl)carbamoyl]oxy}cyclooct-4-ene-1-carboxylate]
k2 ([1]; activator 2.12): 260 ± 40 M⁻¹ s⁻¹ | k2 ([1]; activator 2.17): 8700 ± 1200 M⁻¹ s⁻¹ | k2 ([1]; activator 2.18): 10400 ± 1100 M⁻¹ s⁻¹ | k2 ([1]; activator 2.9): 70 ± 10 M⁻¹ s⁻¹ | residual intact TCO ([2]; 24 h): 98±7% | residual intact TCO ([2]; 48 h): 76±9% | intact TCO [3]: 101±5%
